Data published in patent publication US9295706B2, “Phytotherapic pharmaceutical combination of Lippia salviifolia and Lippia sidoides, phytotherapic pharmaceutical composition, process for preparing a phytotherapic pharmaceutical composition and veterinary uses thereof” (priority 2010, dated 2016).

Tests used:
Assay type in all cases: cell-based
Candida albicans = experiment: Minimum Inhibitory Concentration (MIC) against Candida albicans; conditions: Candida albicans strain
Staphylococcus aureus = experiment: Minimum Inhibitory Concentration (MIC) against Staphylococcus aureus; conditions: Staphylococcus aureus strain
[1] = system: Staphylococcus epidermidis; experiment: Minimum Inhibitory Concentration (MIC) against Staphylococcus epidermidis; conditions: Staphylococcus epidermidis strain
Pseudomonas aeruginosa = experiment: Minimum Inhibitory Concentration (MIC) against Pseudomonas aeruginosa; conditions: Pseudomonas aeruginosa strain
Escherichia coli = experiment: Minimum Inhibitory Concentration (MIC) against Escherichia coli; conditions: Escherichia coli strain

Row | Molecule | MIC Values (Candida albicans) | MIC Values (Staphylococcus aureus) | MIC Values [1] | MIC Values (Pseudomonas aeruginosa) | MIC Values (Escherichia coli)
1 | C[C@@H]1[C@H](O)[C@@H](C)/C=C/C=C/C=C/C=C/C=C/C=C/C=C/[C@H](O[C@@H]2O[C@H](C)[C@@H](O)[C@H](N)[C@@H]2O)C[C@@H]2O[C@](O)(C[C@@H](O)C[C@@H](O)[C@H](O)CC[C@@H](O)C[C@@H](O)CC(=O)O[C@H]1C)C[C@H](O)[C@H]2C(=O)O [Amphotericin B] | 3.15 (b) μg/ml |  |  |  | 
2 | Gemtamicin |  | 75 (a) μg/ml | 150 (a) μg/ml | 37 (a) μg/ml | 75 (a) μg/ml
